Results reported in patent publication US20240342158A1, “METHOD OF TREATING AND/OR PREVENTING TYPE 1 DIABETES WITH CEPHARANTHINE” (ALBERT EINSTEIN COLLEGE OF MEDICINE, priority 2021, published 2024).

How the values were obtained:
[1] = tested on: splenocytes and draining lymph node cells of immunized NOD-DR3 mice; assay: Interferon gamma response of lymphocytes of co-immunized NOD-DR3 mice to the peptides; format: cell-based, humanized NOD-DR3 mice; settings: lymphocytes of mice co-immunized with Tg.1571, GAD.492 and TPO.758, stimulated 48 hours
Source text: Induction of T-Cell Response to Islet and Thyroid Autoantigens in Humanized NOD-DR3 Mice as a Model of APS3v: Previously we have identified 4 thyroid and islet peptides that triggered T-cell responses inNOD-DR3mice—Tg.1571,GAD.492, TPO.338 and TPO.758 (12). However, only 3 of these peptides (Tg.1571, GAD.492, and TPO.758) elicited significant B-cell (antibody) responses. Therefore, we concluded that these 3 peptides are the major T-cell epitopes in APS3v and used them to induce a model of APS3v in humanized NOD-DR3mice. To induce the APS3v model, 22 female NOD-DR3 mice 4-6 weeks old were co-immunized subcutaneously with these three peptides: Tg.1571, GAD.492 and TPO.758 (100 μg each peptide), in Complete Freund's Adjuvant (CFA, Sigma-Aldrich). Mice were immunized with peptides on day 0 and boosted on day 7, then sacrificed on day 21. As negative control, humanized NOD-DR3 littermates were immunized with PBS emulsified in CFA.
Cytokine Assays: Milliplex mouse cytokines/chemokine magnetic panel (Catalog no. MCYTOMAG-70K, EMD Millipore Corporation, Billerica, MA) was used to assay the cytokines, as described in the art. Briefly, splenocytes were plated at 2×10^6 cells per well in 500 μl of medium (RPMI/10% FBS). Supernatants from stimulated lymphocytes were collected 48 h after stimulation with peptides and stored in −80° C. until the assay was performed. The 96-well plate supplied in the kit was washed with the wash buffer supplied and the plate was shaken for 10 min at room temperature. Standards and quality controls were added, followed by the samples. The pre-mixed beads (Interferon gamma and IL-2) were sonicated, vortexed and added to the wells. After shaking the plate overnight at 4° C., the plate was washed twice with wash buffer. Detection antibodies were added for 1 h at room temperature, and Streptavidin-Phycoerythrin was added for 30 min at room temperature. The plate was washed twice and sheath fluid was added to resuspend the beads for 5 min before reading in Luminex 200 with xPONENT software (Luminex, Austin, Texas). […]

[2] = target: recombinant APS3v-HLA-DR3 (Homo sapiens, UniProt P01903+P01911, A100K/A102G/A103R/F55Y/I96L/K41T/P40S/Q125H/Q178H/Q39Y/R42S/S66N/T106N/W38E/Y61H); assay: ELISA inhibition assay of biotinylated peptide binding to recombinant APS3v-HLA-DR3; settings: ELISA inhibition assay, final concentration 0.4 mM
Description: An in vitro binding assay was performed. […] On the day before the immunoassay was performed, a 96-well DELFIA yellow plate (PerkinElmer Life Science) was coated overnight with 20 μg/ml of L243 antibody [Hybridoma was purchased from ATCC, catalogue number HB-55, and IgG was purified by QED Bioscience (San Diego, CA)] in bicarbonate buffer, pH 9.6 (Sigma-Aldrich). L243 is a monoclonal antibody that specifically recognizes the DRa chain of HLA-DR when it is properly folded and complexed with the b chain. The plate was then washed with DELFIA wash buffer (diluted 1:25 from DELFIA wash concentrate, PerkinElmer) to wash off the excess L243 antibody. Blocking was performed using 2.5% BSA in PBS at room temperature for 1 h. After washing 4 times, 100 μl of the pre-incubated mix (containing recombinant APS3v-HLA-DR3 protein, APO, and small molecules) were added onto the plate and shaken at slow speed for 2 h at room temperature. After washing 4 times, DELFIA Europium-labeled streptavidin (PerkinElmer) diluted in DELFIA assay buffer (PerkinElmer) was added for 30 min and shaken at slow speed at room temperature. After washing for 6 times, DELFIA Enhancement Solution was added for 1 h until the optimal signal was reached. Time-resolved fluorescence was measured using the BMG reader (BMG Labtech, Cary, NC). A virtual screen identified 100 small molecules that were predicted to block the unique APS3v-HLA-DR3 pocket. To produce a manageable selection of compounds for validation we clustered the 100 compounds by their simplified molecular input line entry system (SMILES) similarity into 20 clusters. Of the 20 clusters we selected the top scoring members in each cluster. We have enhanced this list to include a total of 11 compounds that blocked APS3v-HLA-DR3, the key HLA-DR3 pocket that triggers APS3v. We tested the selected 11 small molecules identified by the virtual screen in our in vitro ELISA, to test whether the 11 small molecules can block APO peptide (the strongest known peptide binder to HLA-DR3) binding to recombinant APS3v-HLA-DR3. Of the 4 validated small molecules we selected S53 for further testing because it is the only one that has been used in humans before. […] ELISA was performed as previously described.

[3] = tested on: splenocytes and draining lymph node cells of immunized NOD-DR3 mice; assay: Small molecule inhibition of cytokine production ex vivo (Milliplex); format: cell-based, humanized NOD-DR3 mice; design: GAD.492-induced IFN-g production: unit not given here; settings: 1 μM small molecule + GAD.492 20 μg/ml, 48 h; GAD.492 alone 56.3
Description: Cytokine Assays: Milliplex mouse cytokines/chemokine magnetic panel (Catalog no. MCYTOMAG-70K, EMD Millipore Corporation, Billerica, MA) was used to assay the cytokines, as described in the art. Briefly, splenocytes were plated at 2×10^6 cells per well in 500 μl of medium (RPMI/10% FBS). Supernatants from stimulated lymphocytes were collected 48 h after stimulation with peptides and stored in −80° C. until the assay was performed. The 96-well plate supplied in the kit was washed with the wash buffer supplied and the plate was shaken for 10 min at room temperature. Standards and quality controls were added, followed by the samples. The pre-mixed beads (Interferon gamma and IL-2) were sonicated, vortexed and added to the wells. After shaking the plate overnight at 4° C., the plate was washed twice with wash buffer. Detection antibodies were added for 1 h at room temperature, and Streptavidin-Phycoerythrin was added for 30 min at room temperature. The plate was washed twice and sheath fluid was added to resuspend the beads for 5 min before reading in Luminex 200 with xPONENT software (Luminex, Austin, Texas).
Small Molecule Inhibition of Cytokine Production Ex Vivo: Eight NOD-DR3 mice were immunized with the three thyroidal/islet peptides. Upon sacrifice, splenocytes were incubated with 1 μM of small molecules (S5, S9, S15, S53) together with TPO.758 (20 μg/ml), GAD.492 (20 μg/ml) or Tg.1571 (20 μg/ml) respectively to assess the blockade of these peptides' presentation by the tested small molecules. Supernatants from stimulated lymphocytes were collected 48 h after stimulation with peptides and small molecules, and stored in −80° C. until the cytokine assay was performed. […]

Sequence of recombinant APS3v-HLA-DR3 (P01911 30-227 W38E/Q39Y/P40S/K41T/R42S/F55Y/Y61H/S66N/I96L/A100K/A102G/A103R/T106N/Q125H/Q178H): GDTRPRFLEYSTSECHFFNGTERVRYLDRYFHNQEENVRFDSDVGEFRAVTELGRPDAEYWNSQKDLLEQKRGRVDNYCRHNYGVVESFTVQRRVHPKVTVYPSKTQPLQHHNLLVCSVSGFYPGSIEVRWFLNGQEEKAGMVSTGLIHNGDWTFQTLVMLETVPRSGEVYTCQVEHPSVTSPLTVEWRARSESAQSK
Sequence of recombinant APS3v-HLA-DR3 (P01903 26-216): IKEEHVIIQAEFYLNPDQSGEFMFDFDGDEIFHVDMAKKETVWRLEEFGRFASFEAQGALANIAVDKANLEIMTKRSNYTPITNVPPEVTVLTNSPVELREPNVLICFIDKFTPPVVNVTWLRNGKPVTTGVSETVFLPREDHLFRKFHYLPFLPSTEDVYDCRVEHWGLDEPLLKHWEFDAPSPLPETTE

Compound | interferon gamma (IFN-g) response to the peptide [1] | inhibition of binding of the 3 peptides (TPO.758, GAD.492, Tg.1571) to the HLA-DR3 pocket [2] | GAD.492-induced IFN-g production [3]
Tg.1571: thyroglobulin (Tg) peptide EKVPESKVIFDANAPVAVRSKVPDSEF (SEQ ID NO: 1) (Tg.1571) | 24.2 pg/mL | – | –
TPO.758: thyroid peroxidase (TPO) peptide ESGRRVLVYSCRHGYELQG (SEQ ID NO: 3) (TPO.758) | 717 pg/mL | – | –
Cc1ccccc1Nc1nnc(-c2ccc(C)c(S(N)(=O)=O)c2)c2ccccc12 [S9] | – | only blocked GAD.492 and Tg.1571 binding | –
Cc1ccc(-c2nnc(Nc3ccc(C(=O)Nc4ccccc4)cc3)c3ccccc23)cc1S(N)(=O)=O [S5] | – | significant inhibition of binding for all 3 peptides | –
COc1ccc(Nc2nnc(-c3ccc(C)c(S(N)(=O)=O)c3)c3ccccc23)cc1C(N)=O [S15] | – | significant inhibition of binding for all 3 peptides | 30.1
GAD.492: glutamic acid decarboxylase 65 (GAD65) peptide REGYEMVFDGKPQHTNVCF (SEQ ID NO: 2) (GAD.492) | 99.6 pg/mL | – | –
